Laboratory results taken from ChEMBL document CHEMBL4385667, “Phosphoramidate derivates as controlled-release prodrugs of l-Dopa” (Bioorg Med Chem Lett, 2019).

Key:
Type in all cases: physicochemical
[1] = Stability in pH 7.4 buffer assessed as half life at 37 degC by 31P NMR analysis; conditions: for half-life: pH 7.4 buffer
[2] = Stability in pH 7.4 buffer assessed as rate constant of compound hydrolysis at 37 degC by 31P NMR analysis
[3] = Stability in pH 3 buffer assessed as half life at 37 degC by 31P NMR analysis
[4] = Stability in pH 3 buffer assessed as rate constant of compound hydrolysis at 37 degC by 31P NMR analysis
[5] = Stability in pH 7.4 buffer assessed as compound hydrolysis measured over 8 hrs at 37 degC by 31P NMR analysis; conditions: pH 7.4, 8 h

Row | half-life [1] | K [2] | half-life [3] | K [4] | Stability [5] | t1/2 ([1]; buffer) | SMILES
1 | > 8 h | Stable | 1.7 h | 4 ×10⁻¹ /hr | Stable |  | CCOC(=O)CCOP(=O)([O-])N[C@@H](Cc1ccc(O)c(O)c1)C(=O)[O-].[K+].[K+]
2 |  | 7 ×10⁻² /hr | < 0.0833 h | Unstable |  | 9.9 h | CC(=O)N[C@@H](COP(=O)([O-])N[C@@H](Cc1ccc(O)c(O)c1)C(=O)[O-])C(=O)[O-].[K+].[K+].[K+]
3 | < 0.0833 h | Unstable | < 0.0833 h | Unstable |  |  | O=C([O-])CCOP(=O)([O-])N[C@@H](Cc1ccc(O)c(O)c1)C(=O)[O-].[K+].[K+].[K+]
4 | > 8 h | Stable | 5.5 h | 1.2 ×10⁻¹ /hr | Stable |  | CCOC(=O)[C@@H](NC(C)=O)[C@@H](C)OP(=O)([O-])N[C@@H](Cc1ccc(O)c(O)c1)C(=O)[O-].[K+].[K+]
5 | 12.1 h | 5.7 ×10⁻² /hr | < 0.0833 h | Unstable |  |  | CC(=O)N[C@@H](COP(=O)([O-])NCCc1ccc(O)c(O)c1)C(=O)[O-].[K+].[K+]
6 | 0.92 h | 7.2 ×10⁻¹ /hr | < 0.0833 h | Unstable |  |  | CC(=O)N[C@H](C(=O)[O-])[C@@H](C)OP(=O)([O-])N[C@@H](Cc1ccc(O)c(O)c1)C(=O)[O-].[K+].[K+].[K+]
7 | > 8 h | Stable | 2.7 h | 2.5 ×10⁻¹ /hr | Stable |  | CCOC(=O)[C@H](COP(=O)([O-])N[C@@H](Cc1ccc(O)c(O)c1)C(=O)[O-])NC(C)=O.[K+].[K+]
8 | > 8 h | Stable | 1.7 h | 4 ×10⁻¹ /hr | Stable |  | CC(=O)NCCOP(=O)([O-])N[C@@H](Cc1ccc(O)c(O)c1)C(=O)[O-].[K+].[K+]
9 | > 8 h | Stable | 1.2 h | 5.4 ×10⁻¹ /hr | Stable |  | O=C([O-])CCCOP(=O)([O-])N[C@@H](Cc1ccc(O)c(O)c1)C(=O)[O-].[K+].[K+].[K+]
